Results as given in EP0840602B1, “USE OF A RETINOID FOR PREPARING AN ANTIBACTERIAL DRUG” (Pierre Fabre Dermo-Cosmetique, priority 1995, dated 1997).

Tests used:
St. aureus [1] = experiment: Minimal inhibitory concentration (CMI), broth microdilution in microplates; assay type: cell-based, Staphylococcus aureus; conditions: 10^6 germes par ml, 24 h at 32° C, first line of each compound in the table
Experimental: (§1) • Staphylococcus aureus 6538 P • Staphylococcus aureus de pathologies cutanées isolées de l'hôpital Rangueil Toulouse - (France)
• . Bouillon Trypticase soja (Biomérieux)
(§2) Les solutions-mère des produits cités ci-dessous ont été préparées dans l'alcool puis dissoutes dans l'eau distillée stérile de façon à être en final à 200 µg/ml et environ 10° éthanolique (sous lumière jaune). • . Rétinal all Trans • . Rétinal 9 Cis (Sigma R 5754 - lot 62 H 84 43) • . Rétinal 13 Cis (Sigma R 6256 - lot 81 H 8440)
(§3) Une distribution de 100 µl de bouillon Trypticase soja est réalisée dans chaque microcupule de la microplaque stérile (A).
(§4) Un témoin stérilité du milieu et un autre témoin de la vigueur de la souche sont réalisés en parallèle sur la microplaque.
(§5) L'ensemencement de la microplaque (A) a lieu sous la hotte après préparation de l'inoculum bactérien comme suit :
(§6) Les souches ayant été préalablement repiquées la veille sur gélose Trypticase soja, un inoculum 10^8 germes/ml est dispersé dans l'eau distillée stérile puis agité au vortex.
(§7) Les billes de verre assurant une bonne dispersion des souches, la mesure de la densité permet de préparer un inoculum adéquat par rapport à un étalonnage pré-établi et validé.
(§8) La répartition de la souche a lieu dans une deuxième microplaque (B) stérile par distribution de 100 µl d'inoculum par microcupule.
(§9) L'ensemencement a lieu par un repiquage de la microplaque (B) vers la microplaque (A), il se réalise ainsi une dilution au 1/100 de l'inoculum : la microplaque A contenant 10^6 germes par ml, peut être mise à l'étuve 24 h à 32° C.
(§10) La lecture de la plus grande dilution donnant lieu à une clarté identique au témoin stérilité du milieu, constitue la concentration minimale inhibitrice.

St. aureus [2] = experiment: Minimal bactericidal concentration (CMB), subculture of the microplate on trypticase soy agar; assay type: cell-based, Staphylococcus aureus; conditions: subculture 24-48 h at 32° C, second line of each compound in the table
Experimental: as §1
(§11) • . Gélose Trypticase soja (Biomérieux)
as §2
(§12) Le repiquage de la microplaque A sur une gélose trypticase soja préalablement coulée, permet après culture de 24-48 h à 32° C, la lecture de la concentration CMB = plus petite concentration ne permettant pas de croissance sur la gélose.

St. epidermis [3] = experiment: as above; assay type: cell-based; conditions: subculture 24-48 h at 32° C, second line of each compound in the table
Experimental: as §11, §2, §12

St. epidermis [4] = experiment: Minimal inhibitory concentration (CMI), broth microdilution in microplates; assay type: cell-based; conditions: 10^6 germes par ml, 24 h at 32° C, first line of each compound in the table
Experimental: as §2, §3, §4, §5, §6, §7, §8, §9, §10

St. aureus 6538 P = experiment: Bactericidal kinetics and D. value; assay type: cell-based, Staphylococcus aureus
Experimental: Le niveau d'efficacité, de l'ordre du microgramme, a été prouvé pour des souches de staphylocoques plurirésistantes notamment aux aminosides, tétracyclines et macrolides. L'efficacité bactéricide a pu être chiffrée. En effet, le rétinal à 0,1% a une D. value (temps nécessaire pour faire chuter la population du nombre de germes) sur Staphylococcus aureus 6538 P de 14,8 minutes avec un coefficient de corrélation de 0,999 en ce qui concerne la droite de régression linéaire reliant la population de germes au temps de contact germe-rétinaldéhyde.
La D. value du Rétinal à 0,1 % P/V dans une solution éthanolique à 20 % V/V a été recherchée sur St. aureus 6538 P.
La cinétique des prélèvements microbiens a été réalisée aux temps 15', 30', 60', 4h et 6h. L'inoculum de départ étant de 1,0.10^4 germes par ml, la neutralisation se réalise d'après les temps cités dans du Bouillon Trypticase Soja, supplémenté par 10 % de Tween 80. Le neutralisant a été validé au préalable.

[5] = tested on: adhésion des Gram positifs aux cornéocytes; experiment: Adhesion of staphylococci to corneocytes according to Cole and Silverberg (1986); assay type: cell-based; conditions: doses infrabactériostatiques
Text: Le rétinaldéhyde et ses isomères dont le 9 et le 13 cis-rétinaldéhyde possèdent une activité ciblée sur les Gram positifs, en particulier du genre Staphylococcus dont le staphylocoque doré. […] L'efficacité a pu être mise en évidence par le calcul des concentrations minimales inhibitrices et bactéricides sur des souches polyrésistantes issues de prélèvements cutanés isolés en milieu hospitalier et par études de l'adhésion du staphylocoque aux cornéocytes selon Cole et Silverber (1986).
• 1. Thabaut A. et Meyran M. (1989) Activité bactéricide comparée de quatorze antibiotiques sur staphylococcus aureus. Path. Biol. 37 : 321 - 328. • 2. Cole G.W.; Silvergerg N.L (1986) The adherence of staphylococcus aureus to human corneocytes. Arch. Dermatol. 122 : 166 - 169.

staphylococcus aureus = conditions: from reference 1 (Thabaut and Meyran 1989); cited from earlier work

CC1=C(/C=C/C(C)=C\C=C\C(C)=C\C=O)C(C)(C)CCC1 [RETINAL 9 Cis, 9 cis-rétinaldéhyde]
CMI (St. aureus [1]): 0,0003% | CMB (St. aureus [2]): 0,0025% | CMB (St. epidermis [3]): 0,0006% | CMI (St. epidermis [4]): 0,0001%

CC1=C(/C=C/C(C)=C/C=C/C(C)=C\C=O)C(C)(C)CCC1 [RETINAL 13 Cis, 13 cis-rétinaldéhyde]
CMI (St. aureus [1]): 0,0006% | CMB (St. aureus [2]): 0,0025% | CMB (St. epidermis [3]): 0,0006% | CMI (St. epidermis [4]): 0,0001%

CC1=C(/C=C/C(C)=C/C=C/C(C)=C/C=O)C(C)(C)CCC1 [RETINALDEHYDE ALL TRANS, rétinaldéhyde tout trans]
CMI (St. aureus [1]): 0,0003% | CMB (St. aureus [2]): 0,0012% | CMB (St. epidermis [3]): 0,0003% | CMI (St. epidermis [4]): 0,0001%

CC(C=CC=C(C)C=CC1=C(C)CCCC1(C)C)=CC=O [Rétinal, rétinal]
D. value (St. aureus 6538 P; Rétinal 0,1 % P/V in 20 % V/V ethanolic solution, St. aureus 6538 P, linear regression r = 0,99): 14,8 mn | surviving germs, Temps 15 (St. aureus 6538 P; Rétinal 0,1 % P/V in 20 % V/V ethanolic solution, contact 15', starting inoculum 1,0.10^4 germes par ml): 1,4.10^3 | surviving germs, Temps 30 (St. aureus 6538 P; Rétinal 0,1 % P/V in 20 % V/V ethanolic solution, contact 30', starting inoculum 1,0.10^4 germes par ml): 1,3.10^2 | surviving germs, Temps 60 (St. aureus 6538 P; Rétinal 0,1 % P/V in 20 % V/V ethanolic solution, contact 60', starting inoculum 1,0.10^4 germes par ml): 0 | surviving germs, Temps 4h (St. aureus 6538 P; Rétinal 0,1 % P/V in 20 % V/V ethanolic solution, contact 4h, starting inoculum 1,0.10^4 germes par ml): 0 | surviving germs, Temps 6h (St. aureus 6538 P; Rétinal 0,1 % P/V in 20 % V/V ethanolic solution, contact 6h, starting inoculum 1,0.10^4 germes par ml): 0 | Log, Temps 15 (St. aureus 6538 P; log of surviving germs, Rétinal 0,1 %, contact 15'): 3,15 | Log, Temps 30 (St. aureus 6538 P; log of surviving germs, Rétinal 0,1 %, contact 30'): 2,11 | D. value (temps nécessaire pour faire chuter la population du nombre de germes) (St. aureus 6538 P; rétinal à 0,1%, Staphylococcus aureus 6538 P, coefficient de corrélation 0,999): 14,8 minutes | inhibition de l'adhésion des Gram positifs aux cornéocytes [5]: activité inhibant d'adhésion des Gram positifs aux cornéocytes

CC[C@H]1OC(=O)[C@H](C)[C@@H](O[C@H]2C[C@@](C)(OC)[C@@H](O)[C@H](C)O2)[C@H](C)[C@@H](O[C@@H]2O[C@H](C)C[C@H](N(C)C)[C@H]2O)[C@](C)(O)C[C@@H](C)C(=O)[C@H](C)[C@@H](O)[C@]1(C)O [érythromycine]
temps pour faire chuter la population microbienne de 2 Log 10 (staphylococcus aureus): 48 heures
